According to patent US20070249607A1, “NK-1 AND SEROTONIN TRANSPORTER INHIBITORS” (Bristol-Myers Squibb Company, priority 2006, published 2007):
pIC50: −log10 of the molar value. Like-named read-outs stand apart in the source and are kept apart here.

What was measured:
[1] = molecular target: T1, human serotonin transporters (Homo sapiens, UniProt P31645); assay: Serotonin transporter binding assay ([3H]-citalopram competition, HEK-hSERT cell membranes)
T1 construct: expressed in transfected cells
T1 sequence (P31645 whole entry): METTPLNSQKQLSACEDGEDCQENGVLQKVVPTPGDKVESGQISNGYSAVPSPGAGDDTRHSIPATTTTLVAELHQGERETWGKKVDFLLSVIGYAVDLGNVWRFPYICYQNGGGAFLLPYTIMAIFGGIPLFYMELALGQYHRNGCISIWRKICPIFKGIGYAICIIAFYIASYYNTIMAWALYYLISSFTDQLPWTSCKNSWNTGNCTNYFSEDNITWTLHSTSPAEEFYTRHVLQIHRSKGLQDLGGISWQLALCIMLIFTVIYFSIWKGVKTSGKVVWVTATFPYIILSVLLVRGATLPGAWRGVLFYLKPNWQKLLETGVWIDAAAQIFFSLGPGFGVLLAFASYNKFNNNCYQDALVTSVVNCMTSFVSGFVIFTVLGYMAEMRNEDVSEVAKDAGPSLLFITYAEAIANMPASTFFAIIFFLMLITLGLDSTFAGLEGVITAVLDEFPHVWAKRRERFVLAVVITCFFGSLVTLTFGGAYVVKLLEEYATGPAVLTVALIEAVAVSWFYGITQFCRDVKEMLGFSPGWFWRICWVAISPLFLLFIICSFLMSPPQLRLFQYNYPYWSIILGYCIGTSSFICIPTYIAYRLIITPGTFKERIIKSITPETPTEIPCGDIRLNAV
Outline: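 Competition binding against 1 nM [3H]-citalopram (1 hr, 25 °C, Tris pH 7.4 with NaCl/KCl) on stably transfected HEK-hSERT cell membranes, bound ligand collected on filters. Fluoxetine (10 μM) defined nonspecific binding; curve midpoint gives IC50, convertible to Ki by Cheng–Prusoff.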

[2] = molecular target: T2, neurokinin-1 (NK-1) receptor (Homo sapiens, UniProt P25103); assay: NK-1 Binding assay ([125I] Substance P competition, U373 cell membranes); details: U373 membranes, [125I] Substance P displacement, read-out: NK-1 IC50
T2 construct: a human glioblastoma-astrocytoma cell line that endogenously expresses the neurokinin-1 (NK-1) receptor; endogenous in cells; host or cells: U373 human glioblastoma-astrocytoma cells (membranes)
T2 sequence (P25103 whole entry): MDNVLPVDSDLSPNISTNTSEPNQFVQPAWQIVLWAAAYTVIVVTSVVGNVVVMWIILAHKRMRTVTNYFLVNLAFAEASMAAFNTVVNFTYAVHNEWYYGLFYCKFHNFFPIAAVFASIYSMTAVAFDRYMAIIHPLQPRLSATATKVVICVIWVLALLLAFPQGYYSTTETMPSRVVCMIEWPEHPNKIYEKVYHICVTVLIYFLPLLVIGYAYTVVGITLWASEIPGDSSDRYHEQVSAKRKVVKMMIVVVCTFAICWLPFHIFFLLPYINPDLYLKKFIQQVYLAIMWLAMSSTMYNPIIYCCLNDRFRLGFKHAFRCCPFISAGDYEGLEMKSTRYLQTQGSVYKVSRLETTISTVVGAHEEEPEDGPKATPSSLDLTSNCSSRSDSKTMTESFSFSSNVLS
Outline: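 Membranes were prepared from U373 human glioblastoma-astrocytoma cells, which express NK-1 endogenously, in 50 mM Tris-HCl pH 7.4 with 3 mM MnCl2, BSA and protease inhibitors. IC50 taken as the midpoint of the specific-binding displacement curve.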

[3] = Table 2, HEK-hSERT membranes, [3H]-citalopram displacement, read-out: SERT IC50
[4] = Table 1, HEK-hSERT membranes, [3H]-citalopram displacement, read-out: SERT IC50

Row | SMILES | pIC50 [1, 3] | pIC50 ([2]; Table 2) | pIC50 ([2]; Table 1) | pIC50 [1, 4] | pIC50 [1]
1 | N#Cc1ccc(-c2cc(COCC3(c4ccccc4)CCN(C4CC4)CC3)cc(C(F)(F)F)c2)cc1 | < 6.52 | 7.00 to 11.00 | – | – | –
2 | CN1CCC(COCc2cc(-c3ccc(C#N)cc3)cc(C(F)(F)F)c2)(c2ccccc2)CC1 | – | – | 7.00 to 11.00 | – | 7.00 to 11.00
3 | COc1ccc(-c2cc(COCC3(c4ccccc4)CCN(C)CC3)cc(C(F)(F)F)c2)c(F)c1F | – | 7.00 to 11.00 | – | – | 7.00 to 11.00
4 | CCCCc1ccc(-c2cc(COCC3(c4ccccc4)CCNCC3)cc(C(F)(F)F)c2)cc1 | 7.00 to 11.00 | 7.00 to 11.00 | – | – | –
5 | CN1CCC(COCc2cc(-c3ccc(C#N)cc3)cc(C(F)(F)F)c2)(c2ccc(C#N)cc2)CC1 | – | 7.00 to 11.00 | – | – | 7.00 to 11.00
6 | CN1CCC(COCc2cc(-c3ccc(C#N)cc3)cc(C(F)(F)F)c2)(c2cccnc2)CC1 | – | 7.00 to 11.00 | – | – | 7.00 to 11.00
7 | FC(F)(F)c1cc(COCC2(c3ccccc3)CCNCC2)cc(-c2ccc(-c3ccccc3)cc2)c1 | – | – | 6.52 to 7.00 | 7.00 to 11.00 | –
8 | CN1CCC(COCc2cc(-c3ccncc3)cc(C(F)(F)F)c2)(c2ccccc2)CC1 | – | – | 7.00 to 11.00 | – | 7.00 to 11.00
9 | FC(F)(F)c1cc(COCC2(c3ccccc3)CCNCC2)cc(-c2cc(C(F)(F)F)cc(C(F)(F)F)c2)c1 | – | – | 6.52 to 7.00 | 6.52 to 7.00 | –
10 | CN1CCC(COCc2cc(-c3ccc(C#N)cc3)cc(C(F)(F)F)c2)(c2ccc(-c3ccco3)cc2)CC1 | – | 7.00 to 11.00 | – | – | 6.52 to 7.00
11 | CN1CCC(COCc2cc(-c3ccc(C#N)cc3)cc(C(F)(F)F)c2)(c2cccc(C(F)(F)F)c2)CC1 | – | 7.00 to 11.00 | – | – | 7.00 to 11.00
12 | CCOc1ccc(-c2cc(COCC3(c4ccccc4)CCNCC3)cc(C(F)(F)F)c2)cc1 | – | – | 7.00 to 11.00 | 7.00 to 11.00 | –
13 | Cn1nnc(-c2cc(COCC3(c4ccccc4)CCNCC3)cc(C(F)(F)F)c2)n1 | – | – | 7.00 to 11.00 | 7.00 to 11.00 | –
14 | Fc1ccc(-c2cc(COCC3(c4ccccc4)CCNCC3)cc(C(F)(F)F)c2)cc1Cl | – | – | 7.00 to 11.00 | 7.00 to 11.00 | –

Further lines, with some results ahead:

Row | pIC50 [1, 3] | pIC50 ([2]; Table 2) | pIC50 ([2]; Table 1) | pIC50 [1, 4] | SMILES | pIC50 [1]
15 | 7.00 to 11.00 | < 6.52 | – | – | CCc1ccccc1-c1cc(COCC2(c3ccccc3)CCNCC2)cc(C(F)(F)F)c1 | –
16 | 7.00 to 11.00 | < 6.52 | – | – | N#Cc1ccc(-c2cc(COCC3(c4ccccc4)CCNCC3)cc(C(=O)N3CCOCC3)c2)cc1 | –
17 | – | – | < 6.52 | 7.00 to 11.00 | Cc1ccncc1-c1cc(COCC2(c3ccccc3)CCNCC2)cc(C(F)(F)F)c1 | –
18 | – | – | 7.00 to 11.00 | 7.00 to 11.00 | FC(F)(F)c1ccc(-c2cc(COCC3(c4ccccc4)CCNCC3)cc(C(F)(F)F)c2)cc1 | –
19 | – | – | 7.00 to 11.00 | 6.52 to 7.00 | CCCCCc1ccc(-c2cc(COCC3(c4ccccc4)CCNCC3)cc(C(F)(F)F)c2)cc1 | –
20 | – | – | < 6.52 | 7.00 to 11.00 | FC(F)(F)c1cc(COCC2(c3ccccc3)CCNCC2)cc(-c2ccc(N3CCOCC3)nc2)c1 | –
21 | 6.52 to 7.00 | 7.00 to 11.00 | – | – | C[C@H](OCC1(c2ccccc2)CCNCC1)c1cc(-c2ccc(C#N)cc2)cc(C(F)(F)F)c1 | –
22 | – | – | 7.00 to 11.00 | 7.00 to 11.00 | N#Cc1cccc(-c2cc(COCC3(c4ccccc4)CCNCC3)cc(C(F)(F)F)c2)c1 | –
23 | – | – | 7.00 to 11.00 | 7.00 to 11.00 | FC(F)(F)c1cc(COCC2(c3ccccc3)CCNCC2)cc(-c2ccccn2)c1 | –
24 | – | – | 6.52 to 7.00 | 7.00 to 11.00 | FC(F)(F)c1cc(COCC2(c3ccccc3)CCNCC2)cc(-c2ccc3cnccc3c2)c1 | –
25 | – | – | 7.00 to 11.00 | 7.00 to 11.00 | O=[N+]([O-])c1cccc(-c2cc(COCC3(c4ccccc4)CCNCC3)cc(C(F)(F)F)c2)c1 | –
26 | – | – | 6.52 to 7.00 | 7.00 to 11.00 | FC(F)(F)c1cc(COCC2(c3ccccc3)CCNCC2)cc(-c2cnc3ccccc3c2)c1 | –
27 | 7.00 to 11.00 | < 6.52 | – | – | COC(=O)c1cc(-c2cc(COCC3(c4ccccc4)CCNCC3)cc(C(F)(F)F)c2)cc([N+](=O)[O-])c1 | –
28 | – | – | 7.00 to 11.00 | 7.00 to 11.00 | COc1ccc(-c2cc(COCC3(c4ccccc4)CCNCC3)cc(C(F)(F)F)c2)cc1 | –
29 | 7.00 to 11.00 | 7.00 to 11.00 | – | – | COc1cc(-c2cc(COCC3(c4ccccc4)CCNCC3)cc(C(F)(F)F)c2)ccc1C#N | –
30 | – | – | 6.52 to 7.00 | 7.00 to 11.00 | FC(F)(F)c1cc(COCC2(c3ccccc3)CCNCC2)cc(-c2c(Cl)cccc2Cl)c1 | –
31 | – | – | 7.00 to 11.00 | 7.00 to 11.00 | Cc1cccc(-c2cc(COCC3(c4ccccc4)CCNCC3)cc(C(F)(F)F)c2)c1 | –
32 | 7.00 to 11.00 | < 6.52 | – | – | Cc1cc(-c2cc(COCC3(c4ccccc4)CCNCC3)cc(C(F)(F)F)c2)cc(C)c1O | –
33 | – | – | 7.00 to 11.00 | 7.00 to 11.00 | Fc1ccc(-c2cc(COCC3(c4ccccc4)CCNCC3)cc(C(F)(F)F)c2)cc1F | –
34 | – | – | < 6.52 | 7.00 to 11.00 | FC(F)(F)c1cc(COCC2(c3ccccc3)CCNCC2)cc(-n2nnnc2C(F)(F)F)c1 | –
